One experiment addresses S. lugdunensis agr-I (Staphylococcus lugdunensis, UniProt Q8VSW5). Description: cell-based. The settings on record: fluorescent reporter strain; peptides tested at 1000, 50, 2.5, 0.125 nM or in dose-response. As to the method:
(§1) Peptides were evaluated for the ability to interfere with agr-mediated quorum sensing in S. aureus (AH1677, AH430, AH1747, and AH1872 for agr-I–IV, respectively) ([40]) using reporter strains expressing yellow fluorescent protein (YFP) upon agr activation. Interference with agr-mediated quorum sensing in S. epidermidis (AH3408, AH3623, and AH3409 for agr-I–III, respectively) ([45]), and S. lugdunensis (AH4031 for agr-I) ([37]) was evaluated using reporter strains expressing superfolder green fluorescent protein (sGFP) upon agr activation. Overnight cultures of the reporter strains were grown in TSB medium containing chloramphenicol (CAM, 10 μg/mL for S. aureus) or erythromycin (ERM, 10 μg/mL of S. epidermidis and S. lugdunensis) and diluted 1:100 in fresh TSB medium containing the same antibiotic. Assays were performed in sterile black 96-well plates with a clear bottom. […] DMSO stock solutions of peptides (1 mM) were diluted in TSB media and added (15 μL) in technical triplicate to the 96-well plate, followed by diluted bacterial overnight cultures (135 μL). Control wells for 100% agr activity were wells replacing the peptide solution with TSB medium (15 μL). […] Wells containing 150 μL TSB medium were used to measure background fluorescence. The 96-well plates were incubated in a humidified incubator at 37°C shaking at 1,000 rpm for 22–24 h and fluorescence (for GFP: excitation 479 nm, emission 520 nm; for YFP: excitation 500 nm, emission 541 nm; automatic gain), and OD600 values were subsequently measured using a plate reader. Background fluorescence was subtracted from all wells and further normalized to the corresponding OD600 value of the respective wells. The average fluorescence of control wells was used as a relative measure for 100% activation of the agr-circuit, and bar graphs were generated using GraphPad Prism 10.4 software. All assays were performed in at least a biological duplicate.
(§2) Overnight cultures of the reporter strains were grown in TSB medium containing chloramphenicol (CAM, 10 μg/mL for S. aureus) or erythromycin (ERM, 10 μg/mL of S. epidermidis and S. lugdunensis) and diluted 1:100 in fresh TSB medium containing the same antibiotic. Assays were performed in sterile black 96-well plates with clear bottoms. Peptide solutions (15 μL) in 1:5 serial dilutions from DMSO stock solutions (1 mM) in TSB medium were added to the 96-well plate in technical duplicate followed by diluted bacterial overnight cultures (135 μL). Control wells for 100% agr activity were wells replacing the peptide solution with TSB medium (15 μL). Wells containing 150 μL TSB medium were used to measure background fluorescence. The 96-well plates were incubated in a humidified incubator at 37°C shaking at 1,000 rpm for 22–24 h and fluorescence (for GFP: excitation 479 nm, emission 520 nm; for YFP: excitation 500 nm, emission 541 nm; automatic gain), and OD600 values were subsequently measured using a plate reader. Background fluorescence was subtracted from all wells and further normalized to the corresponding OD600 value of the respective wells. The average fluorescence of control wells was used as a relative measure for 100% activation of the agr-circuit. Relative agr activity was plotted to obtain IC50 values by non-linear regression with variable slope using GraphPad Prism 10.4 software. All assays were performed in biological triplicate.

Another experiment addresses SA AgrC-II (Staphylococcus aureus, UniProt O33587). Conditions: 100 nM cognate AIP, ± SEM, -b = no inhibition recorded at the highest AIP concentration tested, determined previously, ref (1), cited from earlier work; for IC50: read-out: IC50, SA AgrC-II, b-lactamase assay.
For another experiment, the target named is SA AgrC-III (Staphylococcus aureus, UniProt O33590). Conditions: 100 nM cognate AIP, ± SEM, determined previously, ref (1), cited from earlier work.
In experiment [1] the test system is S. epidermidis (SE) agr-III. Conditions: fluorescence; ref (13); cited from earlier work.
In a further experiment the test system is S. aureus (SA) agr-IV. The settings on record: fluorescence, cited from earlier work.
The subject of another experiment is S. aureus (SA) agr-II. Conditions: fluorescence, cited from earlier work.
The test system of the next experiment is S. aureus (SA) agr-III. Conditions: fluorescence, cited from earlier work.
A further experiment deals with S. aureus (SA) agr-I. Conditions: fluorescence, cited from earlier work.
In experiment [2] the test system is S. epidermidis (SE) agr-I. The settings on record: fluorescence, cited from earlier work.
The subject of experiment [3] is S. epidermidis (SE) agr-II. The settings on record: fluorescence, cited from earlier work.
For another experiment, the target named is SA AgrC-IV (Staphylococcus aureus, UniProt Q309Z2). The settings on record: ± SEM, determined previously, ref (1), cited from earlier work; for EC50: read-out: EC50, SA AgrC-IV, b-lactamase assay.
The next experiment addresses S. aureus agr-IV (Staphylococcus aureus, UniProt Q309Z2). Description: cell-based. The settings on record: fluorescent reporter strain; peptides tested at 1000, 50, 2.5, 0.125 nM or in dose-response. It is filed as cell-based. As to the method:
as §1, §2

The next experiment deals with S. epidermidis agr-III (Staphylococcus epidermidis, UniProt Q8VSX2). Description: cell-based. It is filed as cell-based. The settings on record: fluorescent reporter strain; peptides tested at 1000, 50, 2.5, 0.125 nM or in dose-response. How it is done: as §1, §2
The mark [4] stands for this setting: -b = no inhibition recorded at the highest AIP concentration tested, read-out: IC50, SA AgrC-III, b-lactamase assay.
[5] abbreviates: only partial inhibition observed, read-out: IC50, SA AgrC-III, b-lactamase assay, only partial inhibition observed (footnote a).
The mark [6] stands for this setting: 100 nM cognate AIP, -b = no inhibition recorded at the highest AIP concentration tested.
[7] abbreviates: -b = no inhibition recorded at the highest AIP concentration tested.

These results are taken from publication PMC12345137 (mBio, 2025).

Like-named read-outs stand apart in the source and are kept apart here.

In the case of “S. Simulans AIP-II/III N-Me2 [compound 56]”, the “QS interaction in words (inhibition / activation), S. lugdunensis agr-I” value on S. lugdunensis agr-I is “remained highly potent”.

For the substance S. haemolyticus AIP-I [compound 15], the “IC50, SA AgrC-II, b-lactamase assay” value at SA AgrC-II is “-b”. The IC50 at SA AgrC-III (setting [4]) was 340 ± 91 nM.

For the substance S. hominis AIP-II [compound 11], the half-inhibitory concentration (IC50) in experiment [1] was 62 nM; with S. aureus (SA) agr-IV (ref (13)), 1130 nM; with S. aureus (SA) agr-II (ref (13)) it was 2110 nM; in the experiment on S. aureus (SA) agr-III (ref (13)), 3 nM; in the experiment with S. aureus (SA) agr-I (ref (13)) it was 15 nM; in [2] (ref (13)) it was 20 nM. In addition, the IC50 in [3] (ref (13)) was 19 nM.

Take S. hominis AIP-III [compound 12]: the EC50 at SA AgrC-IV was 54 ± 5 nM. In addition, the half-maximal inhibitory concentration (IC50) in experiment [1] was 3 nM; on SA AgrC-II it was 580 ± 61 nM; at SA AgrC-III (setting [5]) it was 220 ± 46 nM; with S. aureus (SA) agr-II (ref (13)) it was 4 nM; with S. aureus (SA) agr-III (ref (13)) it was 6 nM; with S. aureus (SA) agr-I (ref (13)), 11 nM. For the same substance, the IC50 in [2] (ref (13)) is 4 nM; in [3] (ref (13)), 3 nM. In addition, the “QS interaction in words (inhibition / activation), S. aureus agr-IV” value on S. aureus agr-IV is recorded as “activated”.

Consider S. hominis AIP-IV [compound 13], for which the IC50 is 28 nM in experiment [1]; 140 nM with S. aureus (SA) agr-II (ref (13)); 37 nM in the experiment with S. aureus (SA) agr-III (ref (13)); 128 nM with S. aureus (SA) agr-I (ref (13)); 237 nM in experiment [2] (ref (13)); 93 nM in experiment [3] (ref (13)).

Regarding S. hominis AIP-V [compound 14], the IC50 in experiment [1] was 2 nM; in the experiment with S. aureus (SA) agr-IV (ref (13)) it was 3810 nM; in the experiment with S. aureus (SA) agr-II (ref (13)) it was 59 nM; with S. aureus (SA) agr-III (ref (13)), 4 nM; in the experiment with S. aureus (SA) agr-I (ref (13)) it was 43 nM; in experiment [2] (ref (13)), 10 nM. The IC50 in experiment [3] (ref (13)) was 22 nM.

Take S. lugdunensis AIP-II [compound 9]: on SA AgrC-IV (setting [6]), the “IC50, SA AgrC-IV, b-lactamase assay” value is reported as “-b”. For the same substance, the “IC50, SA AgrC-II, b-lactamase assay” value at SA AgrC-II is reported as “-b”. The “IC50, SA AgrC-III, b-lactamase assay” value at SA AgrC-III (setting [7]) is “-b”.

Consider S. saprophyticus AIP-I [compound 19], for which, on SA AgrC-IV (setting [6]), the “IC50, SA AgrC-IV, b-lactamase assay” value is on record as “-b”. In addition, at SA AgrC-III (setting [7]), the “IC50, SA AgrC-III, b-lactamase assay” value is “-b”.

On to S. schleiferi AIP-I [compound 30], for which the EC50 on SA AgrC-IV is 31 ± 6 nM. The half-inhibitory concentration (IC50) at SA AgrC-II was 86 ± 6 nM; on SA AgrC-III (setting [5]) it was 80 ± 16 nM.

On to “S. simulans AIP-II/III Y3A/N3A [compound 38]”, for which, at S. epidermidis agr-III, the “QS interaction in words (inhibition / activation), S. epidermidis agr-III” value is “inhibitor”.

S. simulans AIP-III 8-mer [compound 52]: the “QS interaction in words (inhibition / activation), S. aureus agr-IV” value at S. aureus agr-IV is listed as “increased inhibition”.

For the substance S. simulans AIP-III G7A [compound 49], the “QS interaction in words (inhibition / activation), S. epidermidis agr-III” value at S. epidermidis agr-III is listed as “loss of activation”.

S. simulans AIP-III K1A [compound 45]: the “QS interaction in words (inhibition / activation), S. epidermidis agr-III” value at S. epidermidis agr-III was “lost the ability to activate”.

On to S. simulans AIP-III P4A [compound 47], for which the “QS interaction in words (inhibition / activation), S. lugdunensis agr-I” value on S. lugdunensis agr-I was “increase in inhibition”.

For the substance S. simulans AIP-III W6A [compound 48], the “QS interaction in words (inhibition / activation), S. epidermidis agr-III” value on S. epidermidis agr-III is “no effect on S. epidermidis agr-III activation”.

Consider S. simulans AIP-III Y2A [compound 46], for which the “QS interaction in words (inhibition / activation), S. epidermidis agr-III” value on S. epidermidis agr-III is “lost the ability to activate”.

As for S. vitulinus AIP-I [compound 35], at SA AgrC-IV (setting [6]), the “IC50, SA AgrC-IV, b-lactamase assay” value is “-b”. The half-maximal inhibitory concentration (IC50) at SA AgrC-II was 800 ± 116 nM; on SA AgrC-III (setting [4]) it was 690 ± 46 nM.

S. warneri AIP-I [compound 16]: the IC50 was above 1000 nM on SA AgrC-IV (100 nM cognate AIP, -b = no inhibition recorded at the highest AIP concentration tested, read-out: IC50, SA AgrC-IV, b-lactamase assay); 146 nM in the experiment on S. aureus (SA) agr-IV (ref (14)); 1000 ± 105 nM on SA AgrC-II; 460 ± 59 nM on SA AgrC-III (setting [4]); 4 nM in the experiment with S. aureus (SA) agr-II (ref (14)); 13 nM in the experiment with S. aureus (SA) agr-III (ref (14)). Also, the half-inhibitory concentration (IC50) in the experiment with S. aureus (SA) agr-I (ref (14)) was 10 nM; in experiment [2] (ref (14)), 3 nM; in [3] (ref (14)), 19 nM.

As for S. warneri AIP-II [compound 17], the IC50 in the experiment with S. aureus (SA) agr-IV (ref (14)) is 2 nM; in the experiment with S. aureus (SA) agr-II (ref (14)), 30 nM; in the experiment with S. aureus (SA) agr-III (ref (14)), 2 nM; with S. aureus (SA) agr-I (ref (14)), 2 nM; in experiment [2] (ref (14)), 12 nM; in [3] (ref (14)) it was 4 nM.

By IC50 is commonly meant the concentration that gives 50% inhibition. Usually EC50 stands for the concentration at which the effect is half-maximal.
